Source: publication PMC6026847, “Synthesis and Evaluation of the First Fluorescent Antagonists of the Human P2Y2 Receptor Based on AR-C118925” (Journal of Medicinal Chemistry, 2018)
Read-outs that look alike come from different tables or passages of the source.

Target: T1, hP2Y2R (Homo sapiens, UniProt P41231)
T1 construct: The 1321N1 cells expressing wild-type P2Y2R (P2Y2R-1321N1) were gifted by Dr. Elizabeth Rosethorne; expressed in transfected cells; host or cells: 1321N1 astrocytoma cells (P2Y2R-1321N1), gifted
Assay: Calcium-mobilization assay in P2Y2-1321N1 cells (antagonism of UTPγS)
Type: cell-based
Settings: for Kb / hP2Y2 pKb: Gaddum equation; for hP2Y2R antagonist activity in words: calcium-mobilization assay

[1] = Table 2, shift of UTPγS concentration–response curve by a single antagonist concentration, mean ± SEM, read-out: hP2Y2 pKb (converted)
[2] = Table 2, shift of UTPγS concentration–response curve by a single antagonist concentration, mean ± SEM
[3] = Table 1, shift of UTPγS concentration–response curve by a single antagonist concentration, mean ± SEM, read-out: hP2Y2 pKb (converted)
[4] = Table 3, resolved enantiomers, shift of UTPγS curve, mean ± SEM, read-out: hP2Y2 pKb (converted)

T1 sequence (P41231 whole entry): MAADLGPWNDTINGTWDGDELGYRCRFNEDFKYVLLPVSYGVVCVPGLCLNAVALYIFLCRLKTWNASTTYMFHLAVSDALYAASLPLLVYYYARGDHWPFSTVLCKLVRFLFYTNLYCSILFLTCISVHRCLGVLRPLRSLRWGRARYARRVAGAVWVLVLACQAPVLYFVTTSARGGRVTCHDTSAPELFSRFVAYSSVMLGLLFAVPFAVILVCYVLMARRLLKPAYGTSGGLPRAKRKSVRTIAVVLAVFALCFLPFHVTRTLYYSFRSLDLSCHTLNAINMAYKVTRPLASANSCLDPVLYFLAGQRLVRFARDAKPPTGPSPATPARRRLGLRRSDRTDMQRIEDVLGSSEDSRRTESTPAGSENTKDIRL

| Structure (SMILES) | hP2Y2 pKb [2] | hP2Y2R antagonist activity in words | further results |
| --- | --- | --- | --- |
| COCCCNc1nc2c(s1)C=Cc1cc(Cl)ccc1C2c1cn(C)c(=O)[nH]c1=S (centres unmarked) [Example 15, 5-(7-Chloro-2-((3-methoxypropyl)amino)-4H-benzo[5,6]cyclohepta[1,2-d]thiazol-4-yl)-1-methyl-4-thioxo-3,4-dihydropyrimidin-2(1H)-one] |  |  | Kb [1]: 275 nM |
| CC(C)OCCNc1nc2c(s1)C=Cc1cc(Cl)ccc1C2c1cn(C)c(=O)[nH]c1=S (centres unmarked) [Example 17, 5-(7-Chloro-2-((2-isopropoxyethyl)amino)-4H-benzo[5,6]cyclohepta[1,2-d]thiazol-4-yl)-1-methyl-4-thioxo-3,4-dihydropyrimidin-2(1H)-one] |  |  | Kb [1]: 324 nM |
| Cn1cc(C2c3ccc(Cl)cc3C=Cc3sc(N4CCCCC4)nc32)c(=S)[nH]c1=O (centres unmarked) [Example 13, 5-(7-Chloro-2-(piperidin-1-yl)-4H-benzo[5,6]cyclohepta[1,2-d]thiazol-4-yl)-1-methyl-4-thioxo-3,4-dihydropyrimidin-2(1H)-one] | IA (3) (IA = inactive; i.e., less than a 50% inhibition of the response to 0.1 μM UTPγS in the presence of a 10 μM concentration of the compound (n = 3)) | inactive |  |
| Cn1cc(C2c3ccc(Cl)cc3C=Cc3sc(NCCc4ccccc4)nc32)c(=S)[nH]c1=O (centres unmarked) [Example 10, 5-(7-Chloro-2-(phenethylamino)-4H-benzo[5,6]cyclohepta[1,2-d]thiazol-4-yl)-1-methyl-4-thioxo-3,4-dihydropyrimidin-2(1H)-one] | IA (3) (IA = inactive; i.e., less than a 50% inhibition of the response to 0.1 μM UTPγS in the presence of a 10 μM concentration of the compound (n = 3)) | inactive |  |
| Cc1ccc2c(c1)C=Cc1cc(C)ccc1C2c1cn(Cc2nc(C(=O)Nc3nnn[nH]3)cs2)c(=O)[nH]c1=S [Example 3, 2-((5-(2,8-Dimethyl-5H-dibenzo[a,d][7]annulen-5-yl)-2-oxo-4-thioxo-3,4-dihydropyrimidin-1(2H)-yl)methyl)-N-(1H-tetrazol-5-yl)thiazole-4-carboxamide] |  |  | Kb [3]: 77.6 nM |
| Cc1nc2c(s1)C=Cc1cc(Cl)ccc1C2c1cn(C)c(=O)[nH]c1=S (centres unmarked) [Example 6, 5-(7-Chloro-2-methyl-4H-benzo[5,6]cyclohepta[1,2-d]thiazol-4-yl)-1-methyl-4-thioxo-3,4-dihydropyrimidin-2(1H)-one] |  |  | Kb [3]: 1020 nM |
| CCOCCNc1nc2c(s1)C=Cc1cc(Cl)ccc1C2c1cn(C)c(=O)[nH]c1=S (centres unmarked) [Example 23] |  |  | Kb [4]: 166 nM |
| Cc1ccc2c(c1)C=Cc1cc(C)ccc1C2c1cn(C)c(=O)[nH]c1=S [Example 4, 5-(2,8-Dimethyl-5H-dibenzo[a,d][7]annulen-5-yl)-1-methyl-4-thioxo-3,4-dihydropyrimidin-2(1H)-one] |  | inactive | hP2Y2 pKb (Table 1, shift of UTPγS concentration–response curve by a single antagonist concentration, mean ± SEM): IA ^b (IA = inactive; i.e., less than a 50% inhibition of the response to 0.1 μM UTPγS in the presence of a 10 μM concentration of the compound) |
| CCOCCNc1nc2c(s1)C=Cc1cc(Cl)ccc1C2c1cn(C)c(=O)[nH]c1=S (centres unmarked) [Example 16, 5-(7-Chloro-2-((2-ethoxyethyl)amino)-4H-benzo[5,6]cyclohepta[1,2-d]thiazol-4-yl)-1-methyl-4-thioxo-3,4-dihydropyrimidin-2(1H)-one] |  |  | Kb [1]: 186 nM |
| COCCNc1nc2c(s1)C=Cc1cc(Cl)ccc1C2c1cn(C)c(=O)[nH]c1=S (racemic) [Example 14, 5-(7-Chloro-2-((2-methoxyethyl)amino)-4H-benzo[5,6]cyclohepta[1,2-d]thiazol-4-yl)-1-methyl-4-thioxo-3,4-dihydropyrimidin-2(1H)-one] |  |  | Kb [1]: 251 nM |
| Cn1cc(C2c3ccc(Cl)cc3C=Cc3sc(NCCOc4ccccc4)nc32)c(=S)[nH]c1=O (centres unmarked) [Example 18, 5-(7-Chloro-2-((2-phenoxyethyl)amino)-4H-benzo[5,6]cyclohepta[1,2-d]thiazol-4-yl)-1-methyl-4-thioxo-3,4-dihydropyrimidin-2(1H)-one] | IA (3) (IA = inactive; i.e., less than a 50% inhibition of the response to 0.1 μM UTPγS in the presence of a 10 μM concentration of the compound (n = 3)) | inactive |  |
| CCOCCNc1nc2c(s1)C=Cc1cc(Cl)ccc1C2c1cn(C)c(=O)[nH]c1=S (centres unmarked) [Example 22] |  |  | hP2Y2 pKb (Table 3, resolved enantiomers, shift of UTPγS curve, mean ± SEM): IA ^c (3) (IA = inactive; i.e., less than a 50% inhibition of the response to 0.1 μM UTPγS in the presence of a 10 μM concentration of the compound (n = 3)); Kb (Table 7, shift of agonist dose–response curve by a single antagonist concentration, mean ± SEM, read-out: pKb Ca2+ mobilization (converted)): > 10000 nM |
| COCCNc1nc2c(s1)C=Cc1cc(Cl)ccc1C2c1cn(C)c(=O)[nH]c1=S (centres unmarked) [Example 21] |  |  | Kb [4]: 1510 nM |
| COCCNc1nc2c(s1)C=Cc1cc(Cl)ccc1C2c1cn(C)c(=O)[nH]c1=S (centres unmarked) [Example 20] |  |  | Kb [4]: 234 nM |
| Cn1cc(C2c3ccc(Cl)cc3C=Cc3sc(N4CCOCC4)nc32)c(=S)[nH]c1=O (centres unmarked) [Example 12, 5-(7-Chloro-2-morpholino-4H-benzo[5,6]cyclohepta[1,2-d]thiazol-4-yl)-1-methyl-4-thioxo-3,4-dihydropyrimidin-2(1H)-one] | IA (3) (IA = inactive; i.e., less than a 50% inhibition of the response to 0.1 μM UTPγS in the presence of a 10 μM concentration of the compound (n = 3)) | inactive |  |
| Cn1cc(C2c3ccc(Cl)cc3C=Cc3sc(-c4ccccc4)nc32)c(=S)[nH]c1=O (centres unmarked) [Example 19, 5-(7-Chloro-2-phenyl-4H-benzo[5,6]cyclohepta[1,2-d]thiazol-4-yl)-1-methyl-4-thioxo-3,4-dihydropyrimidin-2(1H)-one] | IA (3) (IA = inactive; i.e., less than a 50% inhibition of the response to 0.1 μM UTPγS in the presence of a 10 μM concentration of the compound (n = 3)) | complete loss of affinity |  |
| Cn1cc(C2c3ccc(Cl)cc3C=Cc3sc(N)nc32)c(=S)[nH]c1=O (centres unmarked) [Example 7, 5-(2-Amino-7-chloro-4H-benzo[5,6]cyclohepta[1,2-d]thiazol-4-yl)-1-methyl-4-thioxo-3,4-dihydropyrimidin-2(1H)-one] |  |  | Kb [1]: 275 nM |
| Cn1cc(C2c3ccc(Cl)cc3C=Cc3sc(NCc4ccccc4)nc32)c(=S)[nH]c1=O (centres unmarked) [Example 9, 5-(2-(Benzylamino)-7-chloro-4H-benzo[5,6]cyclohepta[1,2-d]thiazol-4-yl)-1-methyl-4-thioxo-3,4-dihydropyrimidin-2(1H)-one] | IA (3) (IA = inactive; i.e., less than a 50% inhibition of the response to 0.1 μM UTPγS in the presence of a 10 μM concentration of the compound (n = 3)) | inactive |  |
| Cn1cc(C2c3ccc(Cl)cc3C=Cc3sc(Nc4ccccc4)nc32)c(=S)[nH]c1=O (centres unmarked) [Example 8, 5-(7-Chloro-2-(phenylamino)-4H-benzo[5,6]cyclohepta[1,2-d]thiazol-4-yl)-1-methyl-4-thioxo-3,4-dihydropyrimidin-2(1H)-one] | IA ^b (3) (IA = inactive; i.e., less than a 50% inhibition of the response to 0.1 μM UTPγS in the presence of a 10 μM concentration of the compound (n = 3)) | inactive |  |
| Cc1nc2c(s1)C=Cc1cc(Cl)ccc1C2c1cn(Cc2nc(C(=O)Nc3nnn[nH]3)cs2)c(=O)[nH]c1=S (centres unmarked) [Example 5, 2-((5-(7-Chloro-2-methyl-4H-benzo[5,6]cyclohepta[1,2-d]thiazol-4-yl)-2-oxo-4-thioxo-3,4-dihydropyrimidin-1(2H)-yl)methyl)-N-(1H-tetrazol-5-yl)thiazole-4-carboxamide] |  |  | Kb [3]: 331 nM |
| COCCNc1nc2c(s1)C=Cc1cc(Cl)ccc1C2c1cn(Cc2nc(C(=O)Nc3nnn[nH]3)cs2)c(=O)[nH]c1=S (centres unmarked) [Example 24, 2-((5-(7-Chloro-2-((2-methoxyethyl)amino)-4H-benzo[5,6]cyclohepta[1,2-d]thiazol-4-yl)-2-oxo-4-thioxo-3,4-dihydropyrimidin-1(2H)-yl)methyl)-N-(1H-tetrazol-5-yl)thiazole-4-carboxamide] |  |  | Kd (quoted in text for nonfluorescent antagonists, mean ± SEM, read-out: hP2Y2R affinity pKd (converted)): 95.5 nM |
| CN1CCN(c2nc3c(s2)C=Cc2cc(Cl)ccc2C3c2cn(C)c(=O)[nH]c2=S)CC1 (centres unmarked) [Example 11, 5-(7-Chloro-2-(4-methylpiperazin-1-yl)-4H-benzo[5,6]cyclohepta[1,2-d]thiazol-4-yl)-1-methyl-4-thioxo-3,4-dihydropyrimidin-2(1H)-one] | IA (3) (IA = inactive; i.e., less than a 50% inhibition of the response to 0.1 μM UTPγS in the presence of a 10 μM concentration of the compound (n = 3)) | inactive |  |
